What follows are compounds tested against human FPR2 receptor (Homo sapiens (Human), UniProt P25090) (assay: FLIPR Ca+2 response in HEK-Gα16 cells stably expressing the human FPR2 receptor). Conditions: Table 4; value in brackets, given mostly as fraction.
Format: cell-based
Design: FPR2 (% eff): unit not given here
Summary of the method: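 HEK-Gα16 cells stably expressing human FPR2, loaded with 2 μM Fluo-4 in HBSS/20 mM HEPES for 40 min at 37° C., then washed. Ligands added in HBSS/Hepes and Ca+2 responses recorded on FLIPR in relative fluorescence units.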

Sequence of human FPR2 receptor (P25090 whole entry): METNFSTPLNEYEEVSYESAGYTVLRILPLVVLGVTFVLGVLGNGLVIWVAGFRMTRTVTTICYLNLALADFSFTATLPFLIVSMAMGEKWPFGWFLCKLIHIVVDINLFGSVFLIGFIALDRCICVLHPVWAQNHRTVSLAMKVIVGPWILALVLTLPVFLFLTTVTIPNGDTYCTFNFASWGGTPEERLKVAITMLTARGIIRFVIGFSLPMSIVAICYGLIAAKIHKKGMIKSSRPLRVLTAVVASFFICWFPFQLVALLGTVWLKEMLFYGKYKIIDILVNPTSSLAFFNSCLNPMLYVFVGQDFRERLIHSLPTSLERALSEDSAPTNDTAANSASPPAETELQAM

Row | SMILES | FPR2 (% eff)
1 | CC(C)C[C@H](NC(=O)Nc1ccc(C(F)(F)F)cc1)C(=O)NC(C)(C)C(=O)O [Compound 139, 2-methyl-2-{[(2S)-4-methyl-2-({[4-(trifluoromethyl)phenyl]carbamoyl}amino)pentanoyl]amino}propanoic acid] | 0.92
2 | CCC1(CCc2ccccc2C(=O)OC)NC(=O)N(NC(=O)Nc2ccc(Br)cc2)C1=O (stereo not shown) [Compound 141, methyl 2-[2-(1-{[(4-bromophenyl)carbamoyl]amino}-4-ethyl-2,5-dioxoimidazolidin-4-yl)ethyl]benzoate] | 0.92
3 | CC(C)C1(CC(=O)NC(CO)CO)NC(=O)N(NC(=O)Nc2ccc(Br)cc2)C1=O (stereo not shown) [Compound 142, 2-[1-{[(4-bromophenyl)carbamoyl]amino}-2,5-dioxo-4-(propan-2-yl)imidazolidin-4-yl]-N-(1,3-dihydroxypropan-2-yl)acetamide] | 0.92
4 | CCC1(CCc2ccccc2C(=O)O)NC(=O)N(NC(=O)Nc2ccc(Br)cc2)C1=O (stereo not shown) [Compound 143, 2-[2-(1-{[(4-bromophenyl)carbamoyl]amino}-4-ethyl-2,5-dioxoimidazolidin-4-yl)ethyl]benzoic acid] | 1.0
5 | CSCC[C@H](NC(=O)Nc1ccc(Br)cc1)C(=O)NCC(=O)O [Compound 144, {[(2S)-2-{[(4-bromophenyl)carbamoyl]amino}-4-(methylsulfanyl)butanoyl]amino}acetic acid] | 0.91
6 | CC(C)C1(CC(=O)NCCC(=O)O)NC(=O)N(NC(=O)Nc2ccc(Br)cc2F)C1=O (stereo not shown) [Compound 145, 3-({[1-{[(4-bromo-2-fluorophenyl)carbamoyl]amino}-2,5-dioxo-4-(propan-2-yl)imidazolidin-4-yl]acetyl}amino)propanoic acid] | 1.0
7 | CCC1(CCc2ccccc2C(=O)O)NC(=O)N(NC(=O)Nc2ccc(Br)cc2F)C1=O (stereo not shown) [Compound 146, 2-[2-(1-{[(4-bromo-2-fluorophenyl)carbamoyl]amino}-4-ethyl-2,5-dioxoimidazolidin-4-yl)ethyl]benzoic acid] | 1.0
8 | CC(C)C1(CC(=O)NCCC(=O)O)NC(=O)N(NC(=O)Nc2ccc(Br)cc2)C1=O (stereo not shown) [Compound 147, 3-({[1-{[(4-bromophenyl)carbamoyl]amino}-2,5-dioxo-4-(propan-2-yl)imidazolidin-4-yl]acetyl}amino)propanoic acid] | 0.99
9 | CC(C)C1(CC(=O)NCCO)NC(=O)N(NC(=O)Nc2ccc(Br)cc2F)C1=O (stereo not shown) [Compound 148, 2-[1-{[(4-bromo-2-fluorophenyl)carbamoyl]amino}-2,5-dioxo-4-(propan-2-yl)imidazolidin-4-yl]-N-(2-hydroxyethyl)acetamide] | 0.98
10 | CCOC(=O)CCC1(C(C)C)NC(=O)N(NC(=O)Nc2ccc(Br)cc2)C1=O (stereo not shown) [Compound 149, ethyl 3-[1-{[(4-bromophenyl)carbamoyl]amino}-2,5-dioxo-4-(propan-2-yl)imidazolidin-4-yl]propanoate] | 0.94
11 | CC(C)C1(CCc2ccccc2C(=O)O)NC(=O)N(NC(=O)Nc2ccc(Br)cc2)C1=O (stereo not shown) [Compound 151, 2-{2-[1-{[(4-bromophenyl)carbamoyl]amino}-2,5-dioxo-4-(propan-2-yl)imidazolidin-4-yl]ethyl}benzoic acid] | 1.0
12 | CCOP(=O)(CCNC(=O)CC1(C(C)C)NC(=O)N(NC(=O)Nc2ccc(Br)cc2)C1=O)OCC (stereo not shown) [Compound 152, diethyl [2-({[1-{[(4-bromophenyl)carbamoyl]amino}-2,5-dioxo-4-(propan-2-yl)imidazolidin-4-yl]acetyl}amino)ethyl] phosphonate] | 1.0
13 | CCOC(=O)C1CCC2(CC1)NC(=O)N(NC(=O)Nc1ccc(Br)cc1)C2=O (stereo not shown) [Compound 153, ethyl 3-{[(4-bromophenyl)carbamoyl]amino}-2,4-dioxo-1,3-diazaspiro[4.5]decane-8-carboxylate] | 0.99
